Measurements published in patent US10881110B2, “Herbicidal compositions comprising isoxazolo[5,4-b]pyridines” (BASF SE, priority 2014, dated 2021).

What was measured:
Assay in all cases: greenhouse post-emergence herbicidal test
APESV = format: in vivo, Apera spica-venti; set-up: key to herbicidal activity against APESV found: rating on a scale from 0 to 100; settings: post emergence
Experimental: (§1) The culture containers used were plastic pots containing medium loamy sand with approximately 4.6% of humus and 69.9% sand as substrate. The seeds of the test plants were sown separately for each species.
(§2) For the post-emergence treatment, the test plants were grown to a plant height of from 1 to 15 cm, depending on the plant habit, and only then treated with the active compounds which had been suspended or emulsified in water. To this end, the test plants were either sown directly, and grown in the same containers, or they were first grown separately as seedlings and transplanted into the test containers a few days prior to treatment.
(§3) Depending on the species, the plants were kept at 10-25° C. and 20-35° C., respectively.
(§4) The test period extended over 1 to 3 weeks. During this time, the plants were tended and their response to the individual treatments was evaluated 20 days after treatment except mentioned otherwise.
(§5) Evaluation was carried out using a scale from 0 to 100. 100 means no emergence of the plants, or complete destruction of at least the above-ground parts, and 0 means no damage or normal course of growth.
(§6) The respective stated components A and B, and, if appropriate, C, were formulated as a 10% by weight strength emulsion concentrate and, with addition of the amount of solvent system, introduced into the spray liquor used for applying the active compound. In the examples, the solvent used was water.
(§7) In the examples below, using the method of S. R. Colby (1967) “Calculating synergistic and antagonistic responses of herbicide combinations”, Weeds 15, p. 22 ff., the value E, which is expected if the activity of the individual active compounds is only additive, was calculated. E=X+Y−(X·Y/100)

KCHSC = format: in vivo, Kochia scoparia; set-up: key to herbicidal activity against KCHSC found: rating on a scale from 0 to 100; settings: post emergence, g/ha a.i.: I.1 31.25
Experimental: as §1, §2, §3, §4, §5, §6, §7

MATCH = format: in vivo, Matricaria recutita; set-up: key to herbicidal activity against MATCH found: rating on a scale from 0 to 100; settings: post emergence
Experimental: as §1, §2, §3, §4, §5, §6, §7

ALOMY = format: in vivo, Alopecurus myosuroides; set-up: key to herbicidal activity against ALOMY found: rating on a scale from 0 to 100; settings: post emergence
Experimental: as §1, §2, §3, §4, §5, §6, §7

ABUTH = format: in vivo, Abutilon theophrast; set-up: key to herbicidal activity against ABUTH found: rating on a scale from 0 to 100; settings: post emergence
Experimental: as §1, §2, §3, §4, §5, §6, §7

IPOHE = format: in vivo, Ipomoea hederacea; set-up: key to herbicidal activity against IPOHE found: rating on a scale from 0 to 100; settings: post emergence; g/ha a.i.: I.1 31.25; B.24 1; mixture 31.25+1
Experimental: as §1, §2, §3, §4, §5, §6, §7

GERDI = format: in vivo, Geranium dissectum; set-up: key to herbicidal activity against GERDI found: rating on a scale from 0 to 100; settings: post emergence
Experimental: as §1, §2, §3, §4, §5, §6, §7

VIOAR = format: in vivo, Viola arvensis; set-up: key to herbicidal activity against VIOAR found / herbicidal activity against VIOLA found: rating on a scale from 0 to 100; settings: post emergence
Experimental: as §1, §2, §3, §4, §5, §6, §7

GALAP = format: in vivo, Galium aparine; set-up: key to herbicidal activity against GALAP found: rating on a scale from 0 to 100; settings: post emergence
Experimental: as §1, §2, §3, §4, §5, §6, §7

POLCO = format: in vivo, Polygonum convolvulus; set-up: key to herbicidal activity against POLCO found: rating on a scale from 0 to 100; settings: post emergence
Experimental: as §1, §2, §3, §4, §5, §6, §7

PAPRH = format: in vivo, Papaver rhoeas; settings: 2 g/ha a.i.
Experimental: as §1, §2, §3, §4, §5, §6, §7

ERICA = format: in vivo, Conyza canadensis; settings: post emergence; applied alone at 12 g/ha a.i.
Experimental: as §1, §2, §3, §4, §5, §6, §7

CONAR = format: in vivo, Convolvulus arvensis; set-up: key: rating on a scale from 0 to 100; settings: application rate a.i.: I.1 62.5 g/ha, B.30 (imazamox) 3.75 g/ha, alone or as mixture (composition 1.030)
Experimental: as §1, §2, §3, §4, §5, §6, §7

[1] = g/ha a.i.: I.1 31.25, B.24 2, mixture 31.25+2
[2] = g/ha a.i.: I.1 125, B.24 2, mixture 125+2
[3] = application rate a.i.: I.1 62.5 g/ha, B.30 (imazamox) 3.75 g/ha, alone or as mixture (composition 1.030)

Compound: COc1cc(OC)nc(NC(=O)NS(=O)(=O)Nc2ccccc2C(=O)C2CC2)n1 [B.24, cyclosulfamuron]
- herbicidal activity against APESV found (APESV; g/ha a.i.: I.1 31.25, B.24 1, mixture 31.25+1): 0
- herbicidal activity against KCHSC found (KCHSC; B.24 1, mixture 31.25+1): 45
- herbicidal activity against KCHSC found (KCHSC; B.24 2, mixture 31.25+2): 45
- herbicidal activity against MATCH found (MATCH; [1]): 65
- herbicidal activity against MATCH found (MATCH; [2]): 65
- herbicidal activity against ALOMY found (ALOMY; g/ha a.i.: I.1 125, B.24 1, mixture 125+1): 25
- herbicidal activity against ALOMY found (ALOMY; [2]): 35
- herbicidal activity against ABUTH found (ABUTH; [1]): 85
- herbicidal activity against IPOHE found (IPOHE): 75

Compound: CCC/C(=N\OCC)C1=C(O)CC(C2CCCSC2)CC1=O (centres unmarked) [cycloxidim]
- herbicidal activity against APESV found (APESV; single active, 5 g/ha a.i.): 30
- herbicidal activity against GERDI found (GERDI; single active, 2.5 g/ha a.i.): 0
- herbicidal activity against GERDI found (GERDI; single active, 5 g/ha a.i.): 20
- herbicidal activity against MATCH found (MATCH; single active, 5 g/ha a.i.): 65
- herbicidal activity against VIOAR found (VIOAR; single active, 2.5 g/ha a.i.): 0
- herbicidal activity against GALAP found (GALAP; single active, 5 g/ha a.i.): 25

Compound: COc1ncc(F)c2nc(S(=O)(=O)Nc3c(F)cccc3F)nn12 [B.26, florasulam]
- herbicidal activity against POLCO found (POLCO; 2 g/ha a.i.): 85
- herbicidal activity against PAPRH found (PAPRH): 98

Compound: CCSC(C)CC1CC(=O)C(/C(CC)=N/OC/C=C/Cl)=C(O)C1 (centres unmarked) [B.1, clethodim]
- herbicidal activity against APESV found (APESV; applied alone at 6 g/ha a.i.): 75
- herbicidal activity against ERICA found (ERICA): 0
- herbicidal activity against POLCO found (POLCO; applied alone at 6 g/ha a.i.): 0
- herbicidal activity against ABUTH found (ABUTH; applied alone at 6 g/ha a.i.): 0
- herbicidal activity against ABUTH found (ABUTH; applied alone at 12 g/ha a.i.): 25
- herbicidal activity against GALAP found (GALAP; applied alone at 12 g/ha a.i.): 0

Compound: CCCC(=NOCC(C)Oc1ccc(Cl)cc1)C1=C(O)CC(C2CCCSC2)CC1=O (centres unmarked) [B.9, profoxydim]
- herbicidal activity against APESV found (APESV; applied alone at 6 g/ha a.i.): 15
- herbicidal activity against APESV found (APESV; applied alone at 12 g/ha a.i.): 55
- herbicidal activity against POLCO found (POLCO; applied alone at 12 g/ha a.i.): 0
- herbicidal activity against ALOMY found (ALOMY; applied alone at 12 g/ha a.i.): 25
- herbicidal activity against ABUTH found (ABUTH; applied alone at 6 g/ha a.i.): 0
- herbicidal activity against ABUTH found (ABUTH; applied alone at 12 g/ha a.i.): 40

Compound: COCc1cnc(C2=NC(C)(C(C)C)C(=O)N2)c(C(=O)O)c1 (centres unmarked) [B.30, imazamox]
- herbicidal activity against GERDI found (GERDI; [3]): 90
- herbicidal activity against CONAR found (CONAR): 85
- herbicidal activity against VIOAR found (VIOAR; [3]): 45
